Consider two compounds from patent US6734185B2, “Pyrrolo[3,4-d]pyrimidines as corticotropin releasing factor (CRF) antagonists” (Bristol-Myers Squibb Pharma Company, priority 2000, dated 2004).

Each structure is given as a SMILES string. Where a name gives a salt, the structure may show the parent alone.

A word on the melting point: it is the temperature of the solid-liquid transition. On to `Cc1nc(NC(C2CC2)C2CC2)c2c(C)[nH]c(-c3ccc(Cl)cc3Cl)c2n1` (as salt: HCl) [Example 6], for which the melting point lay in the range of 218 to 222 °C.

For the compound `CCC(CC)Nc1nc(C)nc2c1C(C)(O)N=C2c1ccc(Cl)cc1Cl` (centres unmarked) [Example 7, 7-(2,4-Dichloro-phenyl)-4-(1-ethyl-propylamino)-2,5-dimethyl-5H-pyrrolo[3,4-d]pyrimidin-5-ol], the melting point is 184 to 185 °C.
